Consider 6 molecules from patent US20090304615A1, “TRICYCLIC COMPOUNDS AS MELANOGENESIS MODIFIERS AND USES THEREOF” (priority 2007, published 2009).

A word on the inhibition: it is the change of the read-out against control, counted positive when it falls. What is called IC50 is the concentration that inhibits the measured activity by half.

Where a name gives a salt, the structure may show the parent alone.

In the experiment the test system is cultured murine melanocytes (melan-a). Kind of experiment: Melanin assay in cultured murine melanocytes (melan-a). The note with it: Mus musculus, melan-a cells; for inhibition at 1 µM / inhibition at 5 µM: melanin formation, 72 hours of incubation; for IC50: melanin synthesis, read-out: IC50 range. Type of experiment: cell-based. On the procedure:
The Spectrum Collection library consisting of 2000 drug compounds or natural products was screened to identify novel pigmentation inhibitors or stimulators in cultured murine melanocytes (melan-a). Compounds were dissolved in dimethylsulfoxide (DMSO) to a final concentration of 10 mM. Screening was performed with cultured melanocytes in 24-well plates followed by melanin assay (see below). […] DMSO was used as a negative control and the widely used depigmenting agent, hydroquinone, was used as a positive control on every plate. […] All compounds were added at the indicated final concentrations. Cells were harvested after 72 hours of incubation, and melanin assay was performed. For further test and mechanism of action studies, the compounds were purchased from either Sigma or Microsoure. These compounds were dissolved in dimethylsulfoxide (DMSO) to a final concentration of 10 mM, and were tested for their effect on melanin synthesis at the indicated final concentrations. For the primary and secondary screening, cells were harvested and dissolved in 200 μl of 2N NaOH in 20% DMSO at 70° C. A 180-μl aliquot of the resulting solution was measured for absorbance at 490 nm. […] The lysates were centrifuged at 14,000 rpm for 10 minutes at 4° C. BCA protein assay kit (Pierce) was used to measure the protein concentrations of the supernatants, and bovine serum albumin was used as a standard. […] A 180-μl aliquot of the resulting solution was measured for absorbance at 490 nm. The melanin contents were normalized to the total amount of protein.

As to `CN(C)CCCN1c2ccccc2CCc2ccccc21` [compound 5, Imipramine hydrochloride], 1 µM produced 34% inhibition, testing at 5 µM gave an inhibition of 60% and the half-inhibitory concentration (IC50) is less than 1000 nM.

Regarding `CNCCCN1c2ccccc2CCc2ccccc21` [compound 6, Despramine hydrochloride], the IC50 fell in the range of 2500 to 5000 nM.

Take `CN(C)CCC=C1c2ccccc2CCc2ccccc21` [compound 2, Amitriptyline hydrochloride]: the inhibition at 1 µM is 51%, at 5 µM the inhibition was 65% and the 50% inhibitory concentration (IC50) is less than 1000 nM.

With `CNCCC=C1c2ccccc2CCc2ccccc21` [compound 1, Nortriptyline], at 1 µM the inhibition was 39%, at 5 µM the inhibition was 58% and the IC50 is 1000 to 2500 nM.

Take `CC(CN(C)C)CN1c2ccccc2CCc2ccccc21` (centres unmarked) [compound 3, Trimpramine maleate]: the inhibition at 1 µM stood at 28%, at 5 µM the inhibition was 48% and the IC50 is 1000 to 2500 nM.

In the case of `CNCCCC1c2ccccc2C=Cc2ccccc21` [compound 8, Protriptyline hydrochloride], the IC50 lay in the range of 5000 to 10000 nM.
